Measured values from ChEMBL document CHEMBL1143926, “Synthesis of novel analogues of (+)-varitriol via olefin cross-metathesis reaction” (Bioorg Med Chem Lett, 2008).
Activity calls are given as the source filed them. The calls are words filed in the database; no cut-off is given here.

Legend:
[1] = test system: A549; assay: Cytotoxicity against human A549 cells after 24 hrs by MTT assay; type: functional, cell-based
[2] = test system: HT-29; assay: Cytotoxicity against human HT29 cells after 24 hrs by MTT assay; type: functional
[3] = Cytotoxicity against mouse RAW2647 cells after 24 hrs by MTT assay; type: cell-based, RAW264.7; settings: for GI50 at 24 h: RAW2647 cells; for Activity: raw264.7, 24 h
[4] = test system: OVCAR-5; assay: Cytotoxicity against human OVCAR5 cells; type: functional
[5] = test system: HL-60; assay: Cytotoxicity against human HL60 cells; type: functional
[6] = test system: DU-145; assay: Cytotoxicity against human DU145 cells; type: functional
[7] = test system: SNB-19; assay: Cytotoxicity against human SNB19 cells; type: functional
[8] = test system: RXF 393; assay: Cytotoxicity against human RXF393 cells; type: functional
[9] = test system: COLO 205; assay: Cytotoxicity against human COLO205 cells; type: functional
[10] = test system: CCRF-CEM; assay: Cytotoxicity against human CCRF-CEM cells; type: functional
[11] = test system: T47D; assay: Cytotoxicity against human T47D cells; type: functional
[12] = test system: SNB-75; assay: Cytotoxicity against human SNB75 cells; type: functional

| Compound | Activity [1] | GI50 [2] | GI50 at 24 h [3] | other results |
| --- | --- | --- | --- | --- |
| COc1cccc(/C=C/[C@H]2O[C@@H]3OC(C)(C)O[C@@H]3[C@H]2O)c1 | inactive | 17.5 10^-4 M | 671 µM |  |
| COc1ccc(/C=C/[C@H]2OC(OC)[C@@H]3OC(C)(C)O[C@H]23)cc1 (stereo not given in full) | inactive | 4.7 10^-4 M | 696 µM |  |
| COc1cc(/C=C/[C@H]2OC(OC)[C@@H]3OC(C)(C)O[C@H]23)cc2c1OCO2 (stereo not given in full) | inactive | 14 10^-4 M | 462 µM |  |
| COc1cccc(/C=C/[C@H]2OC(OC)[C@@H]3OC(C)(C)O[C@H]23)c1 (stereo not given in full) | inactive |  |  | Activity [2]: inactive; Activity [3]: Not Active |
| COc1cccc(/C=C/C2OC(C)C(O)C2O)c1CO (racemic) [(+/-)-VARITRIOL] |  |  |  | GI50 [4]: 68.2 µM; GI50 [5]: 25.2 µM; GI50 [6]: 1.1 µM; GI50 [7]: 91.3 µM; GI50 [8]: 0.163 µM; GI50 [9]: 95.9 µM; GI50 [10]: 26 µM; GI50 [11]: 0.21 µM; GI50 [12]: 0.244 µM |
| COc1cc(/C=C/[C@H]2O[C@@H]3OC(C)(C)O[C@@H]3[C@H]2O)cc(OC)c1 | inactive | 20 10^-4 M |  | Activity [3]: Not Active |
| COc1cc(/C=C/[C@H]2OC(OC)[C@@H]3OC(C)(C)O[C@H]23)cc(OC)c1 (stereo not given in full) | inactive |  | 541 µM | Activity [2]: inactive |
| COc1cc(/C=C/[C@H]2OC(OC)[C@@H]3OC(C)(C)O[C@H]23)ccc1O (stereo not given in full) | inactive | 13.2 10^-4 M | 835 µM |  |
